Tests used:
[1] = target: T1, human κ opioid receptor (Homo sapiens, UniProt P41145); experiment: κ-opioid receptor radioligand ([3H]-U69,593) dose-displacement binding assay, HEK-293 or CHO cells; set-up: expressed in transfected cells; host or cells: HEK-293 cells (in-house prep)
Description: Membranes from recombinant HEK-293 cells expressing the human K opioid receptor (cloned in house) were prepared by lysing cells in ice cold hypotonic buffer (2.5 mM MgCl2, 50 mM HEPES, pH 7.4) (10 mL/10 cm dish) followed by homogenization with a tissue grinder/Teflon pestle. Membranes were collected by centrifugation at 30,000×g for 15 min at 4° C. and pellets were resuspended in hypotonic buffer to a final concentration of 1-3 mg/mL. Protein concentrations were determined using the BioRad protein assay reagent with bovine serum albumen as standard. Aliquots of κ receptor membranes were stored at −80° C.
Radioligand dose displacement assays used 0.4 nM [^3H]-U69,593 (GE Healthcare, Piscataway, N.J.; 40 Ci/mmole) with 15 μg membrane protein (recombinant K opioid receptor expressed in HEK 293 cells; in-house prep) in a final volume of 200 μl binding buffer (5% DMSO, 50 mM Trizma base, pH 7.4). Non-specific binding was determined in the presence of 10 μM unlabeled naloxone or U69,593. All reactions were performed in 96-well polypropylene plates for 1 hr at a temperature of about 25° C. Binding reactions were terminated by rapid filtration onto 96-well Unifilter GF/C filter plates (Perkin Elmer, Shelton, Conn.) presoaked in 0.5% polyethylenimine (Sigma). Harvesting was performed using a 96-well tissue harvester (Perkin Elmer, Shelton, Conn.) followed by five filtration washes with 200 μl ice-cold binding buffer. Filter plates were subsequently dried at 50° C. for 1-2 hours. Fifty μl/well scintillation cocktail (Perkin Elmer, Shelton, Conn.) was added and plates were counted in a Packard Top-Count for 1 min/well.
(§1) In TABLE 1, binding affinity of certain Compounds of the Invention to the μ-, and κ-opioid receptors in HEK-293 or CHO cells was determined as described above.

[2] = target: T2, μ-opioid receptor (Homo sapiens, UniProt P35372); experiment: μ-opioid receptor [35S]GTPγS functional assay, HEK-293 or CHO cells; format: biochemical; conditions: for Emax: HEK-293 or CHO cells, relative to DAMGO
T2 sequence (P35372 whole entry, species assumed): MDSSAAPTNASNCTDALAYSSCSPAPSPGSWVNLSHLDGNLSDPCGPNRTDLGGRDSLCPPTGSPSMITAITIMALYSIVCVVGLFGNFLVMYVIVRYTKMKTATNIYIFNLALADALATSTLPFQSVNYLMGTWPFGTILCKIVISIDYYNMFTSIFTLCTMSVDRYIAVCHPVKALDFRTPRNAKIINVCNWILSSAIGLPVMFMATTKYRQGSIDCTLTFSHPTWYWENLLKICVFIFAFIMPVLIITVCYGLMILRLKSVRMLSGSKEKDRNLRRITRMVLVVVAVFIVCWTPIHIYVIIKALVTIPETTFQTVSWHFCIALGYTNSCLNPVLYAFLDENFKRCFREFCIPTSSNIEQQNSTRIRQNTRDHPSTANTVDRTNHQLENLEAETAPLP
Description: [^35S]GTPγS functional assays were conducted using freshly thawed μ-receptor membranes prepared in-house from a cell line expressing recombinant opioid receptor in a HEK-293, CHO or U-2 OS cell background, or purchased from a commercial source (Perkin Elmer, Shelton, Conn.; or DiscovRx, Fremont, Calif.). Assay reactions were prepared by sequentially adding the following reagents to binding buffer (100 mM NaCl, 10 mM MgCl2, 20 mM HEPES, pH 7.4) on ice (final concentrations indicated): membrane protein (0.026 mg/mL), saponin ([…]), GDP ([…]) and [^35S]GTPγS (0.20 nM; Perkin Elmer, Shelton, Conn.). The prepared membrane solution (190 l/well) was transferred to 96-shallow well polypropylene plates containing 10 μl of 20× concentrated stock solutions of the agonist [D-Ala^2, N-methyl-Phe^4 Gly-ol^5]-enkephalin (DAMGO) prepared in dimethyl sulfoxide (DMSO). Plates were incubated for 30 min at about 25° C. with shaking. Reactions were terminated by rapid filtration onto 96-well Unifilter GF/B filter plates (Perkin Elmer, Shelton, Conn.) using a 96-well tissue harvester (Perkin Elmer, Shelton, Conn.) followed by three filtration washes with 200 μl of ice-cold wash buffer (10 mM NaH2PO4, 10 mM Na2HPO4, pH 7.4). Filter plates were subsequently dried at 50° C. for 2-3 hr. BetaScint scintillation cocktail (Perkin Elmer, Shelton, Conn.) was added (50 μl/well) and plates were counted using a Packard Top-Count for 1 min/well. Data were analyzed using the sigmoidal dose-response curve fitting functions in GraphPad PRISM v. 3.0, or an in-house function for non-linear, sigmoidal dose-response curve-fitting.
μ GTP EC50 is the concentration of a compound providing 50% of the maximal response for the compound at a μ-opioid receptor.
μ GTP Emax (%) is the maximal effect elicited by a compound relative to the effect elicited by DAMGO, a standard agonist. Generally, the μ GTP Emax (%) value measures the efficacy of a compound to treat or prevent pain or other Conditions.
In TABLE 2, activity response of certain Compounds of the Invention at the μ- and κ-opioid receptors using HEK-293 or CHO cells was determined as described above for functional assays.

[3] = target: T2, μ-opioid receptor; experiment: μ-opioid receptor radioligand ([3H]-diprenorphine) dose-displacement binding assay, HEK-293 or CHO cells
Description: Radioligand dose-displacement binding assays for μ-opioid receptors used 0.3 nM [^3H]-diprenorphine (Perkin Elmer, Shelton, Conn.), with […] membrane protein/well in a final volume of 500 μl binding buffer (10 mM MgCl2, 1 mM EDTA, 5% DMSO, 50 mM HEPES, pH 7.4). Reactions were carried out in the absence or presence of increasing concentrations of unlabeled naloxone. All reactions were conducted in 96-deep well polypropylene plates for 2 hr at room temperature. Binding reactions were terminated by rapid filtration onto 96-well Unifilter GF/C filter plates (Perkin Elmer, Shelton, Conn.), presoaked in 0.5% polyethylenimine using a 96-well tissue harvester (Perkin Elmer, Shelton, Conn.) followed by performing three filtration washes with 500 μl of ice-cold binding buffer. Filter plates were subsequently dried at 50° C. for 2-3 hours. BetaScint scintillation cocktail (Perkin Elmer, Shelton, Conn.) was added (50 l/well), and plates were counted using a Packard Top-Count for 1 min/well. The data were analyzed using the one-site competition curve fitting functions in GraphPad PRISM™ v. 3.0 or higher (San Diego, Calif.), or an in-house function for one-site competition curve-fitting.
as §1

[4] = target: T2, μ-opioid receptor; experiment: μ-opioid receptor [35S]GTPγS functional assay, U-2 OS cells; format: biochemical; set-up: host or cells: U-2 OS cells; conditions: for Emax: U2-OS cells, relative to DAMGO
Procedure, shortened: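 U-2 OS membranes expressing recombinant human μ-receptor (0.026 mg/mL) were incubated with compound, […], saponin and [35S]GTPγS 0.20 nM in HEPES/NaCl/MgCl2 buffer pH 7.4 for 30 min at about 25° C. Filter-bound radioactivity gave sigmoidal fits for EC50; Emax is relative to DAMGO.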

[5] = target: T1, human κ opioid receptor; experiment: κ-opioid receptor [35S]GTPγS functional assay, U-2 OS cells; format: biochemical; set-up: expressed in transfected cells; host or cells: U-2 OS cells (in-house membranes); conditions: for Emax: U2-OS cells, relative to U69,593
Procedure, shortened: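 Membranes from U-2 OS cells expressing human κ receptor (0.026 μg/μl protein) were incubated with agonist, 10 μg/mL saponin, 3 μM GDP and 0.20 nM [35S]GTPγS in pH 7.4 HEPES buffer for 30 min at about 25 °C. Bound radioactivity was measured after filtration. EC50 was taken at half-maximal response; Emax is relative to U69,593.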

T1 sequence (P41145 whole entry): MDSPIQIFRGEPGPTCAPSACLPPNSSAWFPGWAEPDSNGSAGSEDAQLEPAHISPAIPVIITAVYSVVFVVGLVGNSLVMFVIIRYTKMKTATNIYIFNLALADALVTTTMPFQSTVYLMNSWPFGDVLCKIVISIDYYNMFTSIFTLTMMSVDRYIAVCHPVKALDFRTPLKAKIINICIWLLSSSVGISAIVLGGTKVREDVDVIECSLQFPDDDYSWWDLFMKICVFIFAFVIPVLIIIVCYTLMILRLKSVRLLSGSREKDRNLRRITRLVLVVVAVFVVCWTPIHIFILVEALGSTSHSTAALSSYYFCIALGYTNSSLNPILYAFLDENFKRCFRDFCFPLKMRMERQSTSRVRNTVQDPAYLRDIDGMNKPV

COc1ccc2c(c1)[C@]13CCN(CC4CC4)[C@H](C2)[C@]1(O)C[C@H](C)[C@H](O)C3 [Compound 3, (4bR,6R,7S,8aS,9R)-11-(cyclopropylmethyl)-3-methoxy-7-methyl-5,6,7,8,9,10-hexahydro-8aH-9,4b-(epiminoethano)phenanthrene-6,8a-diol] showed a Ki [1] of 3010 ± 339 nM, an EC50 [2] of 2750 nM and an Emax [2] of 58.7 ± 4.18%. For the same compound, the Ki [3] was 6140 ± 963 nM.

COc1ccc2c(c1)[C@]13CCN(CC4CC4)[C@H](C2)[C@]1(O)C[C@H](CO)[C@H](O)C3 [Compound 7, (4bR,6R,7R,8aS,9R)-11-(cyclopropylmethyl)-7-(hydroxymethyl)-3-methoxy-5,6,7,8,9,10-hexahydro-8aH-9,4b-(epiminoethano)phenanthrene-6,8a-diol] gave a Ki [1] of 7300 ± 1640 nM, an EC50 [2] of 4910 nM and an Emax [2] of 53.7 ± 4.37%. The Ki [3] was 10800 ± 843 nM.

For CN(C)[C@H]1CC[C@@]2(O)[C@H]3Cc4ccc(O)cc4[C@@]2(CCN3CC2CC2)C1 [Compound 10, (4bR,6S,8aS,9R)-11-(cyclopropylmethyl)-6-(dimethylamino)-5,6,7,8,9,10-hexahydro-8aH-9,4b-(epiminoethano)phenanthrene-3,8a-diol], the EC50 [4] was 4.69 ± 0.74 nM, the Emax [4] was 33 ± 1.15% and the EC50 [5] was 0.79 ± 0.07 nM. It also gave an Emax [5] of 101 ± 6.23%, a Ki [1] of 0.057 ± 0.01 nM and an EC50 [2] greater than 20000 nM. For the same compound, the Emax [2] was 2.5% and the Ki [3] was 3.84 ± 1.36 nM.

Compound NCCN[C@@H]1CC[C@@]2(O)[C@H]3Cc4ccc(O)cc4[C@@]2(CCN3CC2CC2)C1 [Compound 11, (4bR,6R,8aS,9R)-6-((2-aminoethyl)amino)-11-(cyclopropylmethyl)-5,6,7,8,9,10-hexahydro-8aH-9,4b-(epiminoethano)phenanthrene-3,8a-diol] has an EC50 [4] of 37.9 ± 12 nM, an Emax [4] of 70 ± 8.08% and an EC50 [5] of 2.75 ± 0.48 nM. For the same compound, the Emax [5] was 119 ± 0.58%, the Ki [1] was 0.29 ± 0.049 nM and the EC50 [2] was greater than 20000 nM. The Emax [2] was 6.33 ± 1.67% and the Ki [3] was 71 ± 28.1 nM.

With N=C(N)NCCN[C@@H]1CC[C@@]2(O)[C@H]3Cc4ccc(O)cc4[C@@]2(CCN3CC2CC2)C1 [Compound 12, 1-(2-(((4bR,6R,8aS,9R)-11-(cyclopropylmethyl)-3,8a-dihydroxy-6,7,8,8a,9,10-hexahydro-5H-9,4b-(epiminoethano)phenanthren-6-yl)amino)ethyl)guanidine] the EC50 [4] was 32.7 ± 2.82 nM, the Emax [4] was 64.7 ± 5.17% and the EC50 [5] was 5.06 ± 0.29 nM. For the same compound, the Emax [5] was 105 ± 1.76%, the Ki [1] was 0.29 ± 0.13 nM and the EC50 [2] was greater than 20000 nM. It also gave an Emax [2] of 5.33 ± 0.88% and a Ki [3] of 53.2 ± 8.9 nM.
